From ChEMBL document CHEMBL1201862, “PubChem BioAssay data set” (2004) come the findings set out here.

By CC50 is commonly meant the concentration giving 50% cytotoxicity. One may read the AC50 as the concentration giving half of the maximal activity seen.

SMILES strings stand for the structures. Calls of active or inactive are those of the source. Where only a bound is given, the exact number is not on record here.

The target in test [1] is Envelope glycoprotein gp160 (Human immunodeficiency virus 1, UniProt Q6QLK5). As to the kind of experiment: cell-free HIV fusion peptide-binding blockers – biochemical, uHTS, fluorescence dequenching, […] (AID 1986).
Test [2] deals with Vero. In words: viability of Vero cells under compound – cytotoxicity control for flavivirus capping enzyme inhibitors (AID 588742). Conditions: Chlorocebus sabaeus. In kind it is functional.
The target of test [3] is Genome polyprotein (dengue virus type 2, UniProt P29990). As to the kind of experiment: flavivirus cap methylation enzyme inhibition – biochemical, confirmation dose response, primary screen (AID 588689). In kind it is functional.
The target in test [4] is T1, Carboxy-terminal domain RNA polymerase II polypeptide A small phosphatase 1 (Homo sapiens, UniProt Q9GZU7).
T1 sequence (Q9GZU7 whole entry): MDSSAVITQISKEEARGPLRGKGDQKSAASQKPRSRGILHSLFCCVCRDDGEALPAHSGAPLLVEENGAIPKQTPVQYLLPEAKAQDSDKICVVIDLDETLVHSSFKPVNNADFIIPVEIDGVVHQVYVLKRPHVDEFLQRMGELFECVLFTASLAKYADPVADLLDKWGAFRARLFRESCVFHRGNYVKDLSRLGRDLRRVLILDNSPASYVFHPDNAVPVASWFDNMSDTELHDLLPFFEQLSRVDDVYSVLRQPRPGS
As to the kind of experiment: CTDSP1 inhibitors, concentration-response, biochemical, absorbance readout, ultra-high-throughput screen actives (AID 540297). In kind it is functional.

Test [5] deals with T2, Low molecular weight phosphotyrosine protein phosphatase (Homo sapiens, UniProt P24666).
T2 sequence (P24666 whole entry): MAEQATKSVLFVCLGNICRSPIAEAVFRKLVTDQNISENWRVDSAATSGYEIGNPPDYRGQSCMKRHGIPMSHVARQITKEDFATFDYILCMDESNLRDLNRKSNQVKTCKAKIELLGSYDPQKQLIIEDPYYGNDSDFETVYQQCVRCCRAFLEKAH
In kind it is functional. Conditions: read-out: IC50_Mean.

The target in test [6] is T2, Low molecular weight phosphotyrosine protein phosphatase. In kind it is functional. Conditions: read-out: IC50_Mean. This is another data set of the same source.
The target of test [7] is T3, Tyrosine-protein phosphatase non-receptor type 22 (Homo sapiens, UniProt Q9Y2R2).
T3 sequence (Q9Y2R2 whole entry): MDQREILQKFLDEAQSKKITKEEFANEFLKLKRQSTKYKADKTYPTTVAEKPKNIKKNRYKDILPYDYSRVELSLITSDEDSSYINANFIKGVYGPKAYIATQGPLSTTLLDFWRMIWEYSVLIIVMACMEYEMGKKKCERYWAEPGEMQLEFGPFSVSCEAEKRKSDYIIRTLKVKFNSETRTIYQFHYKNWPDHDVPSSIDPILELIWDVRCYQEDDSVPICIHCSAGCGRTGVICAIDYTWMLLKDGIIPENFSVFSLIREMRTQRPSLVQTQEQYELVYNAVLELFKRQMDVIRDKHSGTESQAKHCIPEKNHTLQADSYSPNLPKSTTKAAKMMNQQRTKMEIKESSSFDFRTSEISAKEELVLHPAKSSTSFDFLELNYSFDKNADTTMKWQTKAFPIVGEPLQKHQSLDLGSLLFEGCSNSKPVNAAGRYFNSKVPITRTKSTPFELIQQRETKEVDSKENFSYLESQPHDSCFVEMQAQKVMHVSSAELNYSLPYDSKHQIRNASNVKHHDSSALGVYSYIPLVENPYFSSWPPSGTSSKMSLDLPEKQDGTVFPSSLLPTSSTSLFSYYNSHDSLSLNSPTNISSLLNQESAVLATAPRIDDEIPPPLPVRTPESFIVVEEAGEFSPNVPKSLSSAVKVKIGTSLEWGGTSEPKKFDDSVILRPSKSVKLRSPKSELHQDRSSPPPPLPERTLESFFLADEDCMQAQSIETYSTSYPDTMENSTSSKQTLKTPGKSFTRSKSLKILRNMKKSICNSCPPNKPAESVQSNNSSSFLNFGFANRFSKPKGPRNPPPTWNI
As to the kind of experiment: PTPN22 enzyme inhibitors – biochemical, fluorescence, LYP catalytic domain, selectivity assay for LMPTP inhibitor project, dose response (AID 652006). The test is classed as functional. Conditions: read-out: IC50_Mean.

A short description of test [8]: cells. The test is classed as functional, cell-based.
The nature of test [9]: cells. The test is classed as functional, cell-based. The source holds these as a separate data set.
Test [10] has as its target ORF 73 (Human herpesvirus 8, UniProt O40947). As to the kind of experiment: KSHV LANA DNA-binding disruption – biochemical, fluorescence polarization, cherry-picked samples, dose response (AID 504725).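 Note: fluorescence polarization of a labeled DNA duplex reporting LANA DNA binding; potency is for inhibitors that block LANA binding to the DNA.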 Set-up: species or system Human gammaherpesvirus 8. In general terms: In fluorescence polarisation assays a small probe gives low polarisation when free and higher when bound to something large.

Test [11] in a line: HEK-293T viability loss after treatment – luminescence, T-cell screen hits, cytotoxicity control for TCR NF-kB inhibitor project, dose response (AID 489026).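 Note: cells exposed to compound about 14 hours before the viability readout.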 The test is classed as functional, cell-based.
The target of test [12] is T4, Corticotropin-releasing factor receptor 2/Corticotropin-releasing factor-binding protein (Homo sapiens, UniProt P24387+Q13324).
T4 sequence (Q13324 whole entry): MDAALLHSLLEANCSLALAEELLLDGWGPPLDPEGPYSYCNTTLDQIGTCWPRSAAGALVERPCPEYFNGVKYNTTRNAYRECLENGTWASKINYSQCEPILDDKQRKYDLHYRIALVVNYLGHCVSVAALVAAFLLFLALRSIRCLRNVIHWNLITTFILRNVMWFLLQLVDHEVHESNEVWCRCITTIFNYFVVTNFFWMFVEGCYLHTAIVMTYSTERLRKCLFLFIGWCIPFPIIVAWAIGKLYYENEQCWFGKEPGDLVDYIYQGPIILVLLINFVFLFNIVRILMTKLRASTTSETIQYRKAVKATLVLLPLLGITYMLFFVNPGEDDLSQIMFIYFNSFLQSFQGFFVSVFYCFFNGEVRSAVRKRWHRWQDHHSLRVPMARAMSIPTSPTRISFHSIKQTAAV
T4 sequence (P24387 whole entry): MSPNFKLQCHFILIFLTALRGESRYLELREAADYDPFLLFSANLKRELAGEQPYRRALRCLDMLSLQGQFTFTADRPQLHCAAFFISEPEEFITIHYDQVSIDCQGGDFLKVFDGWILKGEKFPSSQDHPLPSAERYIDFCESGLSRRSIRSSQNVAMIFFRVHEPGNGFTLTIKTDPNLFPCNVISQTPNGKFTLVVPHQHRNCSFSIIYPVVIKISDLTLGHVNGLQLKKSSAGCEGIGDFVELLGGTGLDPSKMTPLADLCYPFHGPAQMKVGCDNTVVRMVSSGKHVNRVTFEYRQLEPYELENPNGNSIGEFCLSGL
As to the kind of experiment: activators of CRF receptor 2 with binding protein – uHTS hits, confirmation (AID 602473). In kind it is functional. Conditions: read-out: EC50_Mean.

Test [13] addresses Metabotropic glutamate receptor 4 (Rattus norvegicus, UniProt P31423). In words: Modulation of the Metabotropic Glutamate Receptor mGluR4: Rat PAM Potency. [Related pubchem assays (depositor defined):AID2437, AID2807]. The test is classed as functional.
Test [14] deals with Wee1-like protein kinase (Homo sapiens, UniProt P30291). In words: HeLa cell cycle G2/M accumulation – FACS, mechanism study for Wee1 degradation inhibitor project, late-stage follow-up, panel member Wee1 Degradation (AID 2088).
Test [15] addresses G2/mitotic-specific cyclin-B1 (Homo sapiens, UniProt P14635). In words: HeLa cell cycle G2/M accumulation – FACS, mechanism study for Wee1 degradation inhibitor project, late-stage follow-up, panel member Cyclin B Degradation (AID 2088).
The subject of test [16] is BJ. In words: BJ-TERT fibroblast viability loss – cell-based, RAS-independent, luminescence, dose response (AID 1933). In kind it is functional. Conditions: Homo sapiens.
Test [17] concerns BJ. In words: cells. The test is classed as functional, cell-based. Conditions: Homo sapiens.
In test [18] the test system is BJ. In words: BJ-TERT-LT-ST fibroblast viability loss – cell-based, RAS-independent, luminescence, dose response (AID 1935).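 Note: BJ fibroblasts immortalized with TERT plus LT and ST oncogenes.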 The test is classed as functional. Conditions: Homo sapiens.
A short description of test [19]: DRD fibroblast viability loss – cell-based, non-viral oncogenic, luminescence, dose response (AID 1934). The test is classed as functional. Conditions: Homo sapiens.
The test system of test [20] is Saccharomyces cerevisiae. As to the kind of experiment: S. cerevisiae Caspase-1/ASC signal blockers IC50, NALP1 inhibitor project selectivity test (AID 488863). In kind it is functional, organism-based.
In test [21] the target is NACHT, LRR and PYD domains-containing protein 1 (Homo sapiens, UniProt Q9C000). In words: NALP1 inhibitors in yeast, dose response, luminescent (AID 488860). In kind it is functional.
Chain of NACHT, LRR and PYD domains-containing protein 1 (Q9C000 1-1212 limits assumed): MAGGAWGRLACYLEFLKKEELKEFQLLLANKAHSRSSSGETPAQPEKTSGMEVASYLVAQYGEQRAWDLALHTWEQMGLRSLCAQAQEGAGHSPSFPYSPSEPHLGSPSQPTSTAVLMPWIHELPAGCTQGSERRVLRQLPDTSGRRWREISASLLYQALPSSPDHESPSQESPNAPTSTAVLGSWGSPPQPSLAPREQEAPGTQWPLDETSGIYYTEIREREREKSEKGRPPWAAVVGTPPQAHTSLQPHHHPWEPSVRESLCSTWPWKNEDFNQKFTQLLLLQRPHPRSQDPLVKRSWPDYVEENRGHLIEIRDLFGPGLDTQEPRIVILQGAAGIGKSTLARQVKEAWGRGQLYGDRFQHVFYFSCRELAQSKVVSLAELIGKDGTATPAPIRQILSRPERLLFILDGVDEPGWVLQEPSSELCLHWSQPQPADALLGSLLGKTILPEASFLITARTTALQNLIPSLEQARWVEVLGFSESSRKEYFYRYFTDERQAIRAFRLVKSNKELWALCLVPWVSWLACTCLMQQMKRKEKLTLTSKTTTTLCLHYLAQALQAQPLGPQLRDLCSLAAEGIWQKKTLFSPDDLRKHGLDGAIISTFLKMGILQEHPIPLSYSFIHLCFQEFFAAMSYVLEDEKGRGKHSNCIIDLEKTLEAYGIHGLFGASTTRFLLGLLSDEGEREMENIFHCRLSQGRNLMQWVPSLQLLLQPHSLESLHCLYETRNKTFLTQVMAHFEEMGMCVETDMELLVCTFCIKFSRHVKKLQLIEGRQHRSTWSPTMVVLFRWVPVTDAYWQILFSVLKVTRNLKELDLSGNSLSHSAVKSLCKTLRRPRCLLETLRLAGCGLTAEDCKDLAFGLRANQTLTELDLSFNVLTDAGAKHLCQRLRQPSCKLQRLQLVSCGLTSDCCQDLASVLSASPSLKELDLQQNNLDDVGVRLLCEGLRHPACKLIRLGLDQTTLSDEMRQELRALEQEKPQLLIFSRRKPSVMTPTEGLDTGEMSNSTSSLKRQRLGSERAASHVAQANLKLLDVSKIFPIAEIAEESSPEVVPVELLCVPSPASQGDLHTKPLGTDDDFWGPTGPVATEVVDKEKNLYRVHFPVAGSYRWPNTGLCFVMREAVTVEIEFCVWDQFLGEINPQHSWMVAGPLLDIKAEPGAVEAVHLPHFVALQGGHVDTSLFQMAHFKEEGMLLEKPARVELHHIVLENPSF
Chain of NACHT, LRR and PYD domains-containing protein 1 (Q9C000 1213-1473 limits assumed): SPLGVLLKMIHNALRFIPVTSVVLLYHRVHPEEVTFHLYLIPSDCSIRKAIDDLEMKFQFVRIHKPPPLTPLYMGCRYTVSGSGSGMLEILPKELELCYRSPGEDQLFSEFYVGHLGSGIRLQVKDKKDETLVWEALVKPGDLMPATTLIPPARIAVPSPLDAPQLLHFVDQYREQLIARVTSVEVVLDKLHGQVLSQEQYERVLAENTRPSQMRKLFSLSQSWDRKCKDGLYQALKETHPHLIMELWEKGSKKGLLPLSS

Chain of Genome polyprotein (P29990 2492-3391 limits assumed): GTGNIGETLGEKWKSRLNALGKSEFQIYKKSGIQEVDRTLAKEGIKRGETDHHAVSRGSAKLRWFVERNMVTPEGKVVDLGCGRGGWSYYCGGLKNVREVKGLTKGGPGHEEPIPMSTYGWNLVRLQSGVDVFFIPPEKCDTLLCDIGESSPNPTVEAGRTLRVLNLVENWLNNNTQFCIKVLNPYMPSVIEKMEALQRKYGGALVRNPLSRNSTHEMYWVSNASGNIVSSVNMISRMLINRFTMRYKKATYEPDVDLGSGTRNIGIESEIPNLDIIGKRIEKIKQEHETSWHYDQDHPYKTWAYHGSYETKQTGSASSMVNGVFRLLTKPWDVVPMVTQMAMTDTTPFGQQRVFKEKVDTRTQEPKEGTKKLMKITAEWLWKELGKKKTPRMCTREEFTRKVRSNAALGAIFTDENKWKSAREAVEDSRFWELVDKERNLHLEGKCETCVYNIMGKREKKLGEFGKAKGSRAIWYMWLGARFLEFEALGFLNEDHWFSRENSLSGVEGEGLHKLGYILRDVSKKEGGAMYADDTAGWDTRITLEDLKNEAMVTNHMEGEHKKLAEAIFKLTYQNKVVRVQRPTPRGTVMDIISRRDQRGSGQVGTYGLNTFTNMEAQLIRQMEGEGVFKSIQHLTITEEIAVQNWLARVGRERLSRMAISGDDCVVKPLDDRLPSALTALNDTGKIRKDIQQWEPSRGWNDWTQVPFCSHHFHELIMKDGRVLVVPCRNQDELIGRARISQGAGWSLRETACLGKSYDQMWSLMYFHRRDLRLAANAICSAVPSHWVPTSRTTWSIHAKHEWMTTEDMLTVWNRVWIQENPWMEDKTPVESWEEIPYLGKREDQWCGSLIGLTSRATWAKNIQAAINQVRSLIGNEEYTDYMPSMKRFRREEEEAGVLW
Chain of G2/mitotic-specific cyclin-B1 (P14635 whole entry): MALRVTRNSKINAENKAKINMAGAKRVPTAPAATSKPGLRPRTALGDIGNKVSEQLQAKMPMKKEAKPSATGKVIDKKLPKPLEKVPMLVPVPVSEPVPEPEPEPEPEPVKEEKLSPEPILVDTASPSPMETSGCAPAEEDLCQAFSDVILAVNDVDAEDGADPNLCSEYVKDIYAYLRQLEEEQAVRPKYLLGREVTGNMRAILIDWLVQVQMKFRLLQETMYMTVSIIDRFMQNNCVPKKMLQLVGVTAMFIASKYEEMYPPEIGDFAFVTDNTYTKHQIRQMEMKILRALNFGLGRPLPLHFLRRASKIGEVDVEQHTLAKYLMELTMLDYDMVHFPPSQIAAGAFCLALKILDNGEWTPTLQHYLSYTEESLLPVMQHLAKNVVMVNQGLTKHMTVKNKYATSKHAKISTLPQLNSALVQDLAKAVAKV
Chain of Envelope glycoprotein gp160 (Q6QLK5 whole entry, the tested form may be a part): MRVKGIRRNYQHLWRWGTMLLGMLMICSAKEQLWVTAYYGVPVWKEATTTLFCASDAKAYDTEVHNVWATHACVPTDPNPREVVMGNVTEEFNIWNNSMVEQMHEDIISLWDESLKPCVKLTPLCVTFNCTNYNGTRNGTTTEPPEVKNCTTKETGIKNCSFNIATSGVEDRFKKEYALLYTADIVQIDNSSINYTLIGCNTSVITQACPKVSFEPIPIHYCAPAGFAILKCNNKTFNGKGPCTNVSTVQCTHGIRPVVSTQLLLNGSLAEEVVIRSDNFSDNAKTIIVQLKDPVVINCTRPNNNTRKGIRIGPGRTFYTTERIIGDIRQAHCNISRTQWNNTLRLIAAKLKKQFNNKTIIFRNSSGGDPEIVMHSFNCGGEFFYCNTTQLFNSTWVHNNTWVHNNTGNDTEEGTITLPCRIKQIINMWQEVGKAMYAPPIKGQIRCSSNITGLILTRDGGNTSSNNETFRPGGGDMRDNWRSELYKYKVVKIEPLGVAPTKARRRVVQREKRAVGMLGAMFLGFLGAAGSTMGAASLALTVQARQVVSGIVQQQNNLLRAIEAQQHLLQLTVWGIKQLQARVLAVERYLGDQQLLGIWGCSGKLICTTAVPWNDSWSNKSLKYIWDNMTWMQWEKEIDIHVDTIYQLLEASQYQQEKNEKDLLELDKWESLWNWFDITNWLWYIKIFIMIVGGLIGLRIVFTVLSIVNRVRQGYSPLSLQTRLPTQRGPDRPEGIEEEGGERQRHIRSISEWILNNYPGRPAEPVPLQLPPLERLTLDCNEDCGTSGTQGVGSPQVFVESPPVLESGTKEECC
Chain of Wee1-like protein kinase (P30291 whole entry): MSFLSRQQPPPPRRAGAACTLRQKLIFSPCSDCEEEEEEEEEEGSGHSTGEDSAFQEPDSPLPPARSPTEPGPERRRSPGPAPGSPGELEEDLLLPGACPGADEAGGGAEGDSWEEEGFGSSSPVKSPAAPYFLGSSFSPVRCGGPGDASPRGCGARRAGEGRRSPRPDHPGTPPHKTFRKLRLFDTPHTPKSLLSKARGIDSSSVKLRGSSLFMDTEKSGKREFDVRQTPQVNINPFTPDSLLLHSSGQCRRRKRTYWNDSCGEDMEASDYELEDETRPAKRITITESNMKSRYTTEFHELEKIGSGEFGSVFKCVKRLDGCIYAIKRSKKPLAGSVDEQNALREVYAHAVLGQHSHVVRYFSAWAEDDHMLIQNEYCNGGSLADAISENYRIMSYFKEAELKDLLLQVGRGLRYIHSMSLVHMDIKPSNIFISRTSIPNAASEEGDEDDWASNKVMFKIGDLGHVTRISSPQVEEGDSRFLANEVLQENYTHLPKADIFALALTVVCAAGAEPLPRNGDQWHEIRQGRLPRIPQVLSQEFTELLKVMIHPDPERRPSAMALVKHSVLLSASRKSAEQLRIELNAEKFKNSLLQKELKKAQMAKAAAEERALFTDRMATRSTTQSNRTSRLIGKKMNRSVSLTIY

For `Cc1c(CCC(=O)O)c(=O)oc2c(C)c3occ(-c4ccc(Cl)cc4)c3cc12`, the IC50 in [1] is 15.1 µM (active); in test [3], 42.2 µM (active); in test [4] it was 4.89 µM (active); in test [5] it was 19.1 µM (active); in [6], 8.61 µM (active); in [7], 22.4 µM (inactive). Besides, the CC50 in test [2] was > 40 µM (active).
For `O=C(OCCN1C(=O)c2cccc3c(N4CCOCC4)ccc(c23)C1=O)c1ccc(Cl)cc1`, the EC50 in test [8] is > 350 µM (not active); in test [9], > 350 µM (not active); in test [12], 5.89 µM (active). In addition, in test [10], the AC50 is 29.3 µM (active). Further, in [11], the IC50 was > 80 µM (inactive).
As for `CC1(c2ccccc2)CC(=O)N(c2ccc(NC(=O)c3ccccn3)cc2Cl)C1=O` (stereo unspecified), the EC50 in test [13] is 0.54 µM (active).
In the case of `Cc1cc(=O)[nH]c(-n2nc(C)cc2NC(=O)CCc2ccccc2)n1`, the EC50 in [14] is > 16.6 µM (active); in [15] it was > 49.7 µM (inactive).
In the case of `CCN1/C(=C/C=C/C=C/c2sc3ccccc3[n+]2CC)Sc2ccccc21` [DITHIAZANINE IODIDE], the EC50 in test [16] is 1.7 µM (inconclusive); in test [17], 2.04 µM (inconclusive); in test [18] it was 3 µM (inconclusive); in test [19], 1.68 µM (inconclusive). In addition, the figures for the IC50 in [20] and in test [21] were > 100 µM (inactive) and 19.5 µM (active), respectively.
